Values of other authors in patent US12336538B2, “Method for controlling rats and mice with cholecalciferol baits” (priority 2014, dated 2025).

Columns and labels:
bait shyness = settings: Gould and Holmes, Pest Manag. Sci. 2008

For C=C1CC[C@H](O)C/C1=C/C=C1\CCC[C@]2(C)[C@@H]([C@H](C)CCCC(C)C)CC[C@@H]12 [cholecalciferol, Cholecalciferol], which “suitability to control a rat population” value (rat population; 0.1% cholecalciferol alone, only one day of feeding, Posipischil and Schnorbach 1994) is on record?
The value was “not suitable to control a rat population”.

And the “suitability to control rat population” value (rat population; cholecalciferol alone, Kocher and Navjot 2013)?
The value was “not suitable to control rat population”.

For COc1ccc2c(c1)[C@]13CCCC[C@@H]1[C@H](C2)N(C)CC3 [dextromethorphan], which “prevention of bait shyness to cholecalciferol” value (bait shyness) is on record?
Its value is “ineffective”.
